Patent US12496336B2 (priority 2019, dated 2025)

System: H3N2 A/Hong Kong/1/1968 virus
Assay type: cell-based, influenza A virus

## CC(=O)N[C@H]1[C@H]([C@H](O)[C@H](O)CO)OC(C(=O)O)=C[C@@H]1N=C(N)N [Zanamivir, zanamivir]
  inhibition of cell-to-cell spread of the virus: efficient inhibition of cell-to-cell virus spread
